# Data from ChEMBL document CHEMBL3352108, “Structure-activity relationships of the thujaplicins for inhibition of human tyrosinase” (Bioorg Med Chem, 2014).
# Active and inactive are the calls of the source. The rule behind the calls is not given here.
# How the values were obtained:
# Tyrosinase [1] = biological target: T1, Tyrosinase (Agaricus bisporus, UniProt O42713)
# T1 sequence (O42713 whole entry): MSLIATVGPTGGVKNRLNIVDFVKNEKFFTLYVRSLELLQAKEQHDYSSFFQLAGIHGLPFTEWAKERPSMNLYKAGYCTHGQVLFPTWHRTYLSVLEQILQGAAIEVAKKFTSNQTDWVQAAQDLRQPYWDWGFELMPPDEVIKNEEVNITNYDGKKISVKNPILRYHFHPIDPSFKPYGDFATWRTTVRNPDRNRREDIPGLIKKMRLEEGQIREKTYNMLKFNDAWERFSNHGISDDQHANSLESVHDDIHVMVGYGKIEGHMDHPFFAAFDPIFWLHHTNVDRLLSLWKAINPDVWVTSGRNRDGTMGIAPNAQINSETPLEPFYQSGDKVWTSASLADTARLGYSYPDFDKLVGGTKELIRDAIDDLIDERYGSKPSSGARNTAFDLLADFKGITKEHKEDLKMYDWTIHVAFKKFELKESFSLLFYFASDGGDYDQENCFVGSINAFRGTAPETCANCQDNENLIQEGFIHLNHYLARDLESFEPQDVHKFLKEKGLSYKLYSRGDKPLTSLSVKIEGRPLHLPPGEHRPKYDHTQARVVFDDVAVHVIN
# Description: Inhibition of mushroom tyrosinase
# Tyrosinase [2] = biological target: T1, Tyrosinase; remark: listed apart in the source
# Description: Non-competitive inhibition of mushroom tyrosinase
# [3] = biological target: T2, Tyrosinase (Homo sapiens) (UniProt P14679); experiment: Inhibition of tyrosinase in human G-361 cells at >200 uM incubated for 10 mins measured for 2 hrs by MBTH-based spectrophotometry; type: cell-based
# T2 sequence (whole entry): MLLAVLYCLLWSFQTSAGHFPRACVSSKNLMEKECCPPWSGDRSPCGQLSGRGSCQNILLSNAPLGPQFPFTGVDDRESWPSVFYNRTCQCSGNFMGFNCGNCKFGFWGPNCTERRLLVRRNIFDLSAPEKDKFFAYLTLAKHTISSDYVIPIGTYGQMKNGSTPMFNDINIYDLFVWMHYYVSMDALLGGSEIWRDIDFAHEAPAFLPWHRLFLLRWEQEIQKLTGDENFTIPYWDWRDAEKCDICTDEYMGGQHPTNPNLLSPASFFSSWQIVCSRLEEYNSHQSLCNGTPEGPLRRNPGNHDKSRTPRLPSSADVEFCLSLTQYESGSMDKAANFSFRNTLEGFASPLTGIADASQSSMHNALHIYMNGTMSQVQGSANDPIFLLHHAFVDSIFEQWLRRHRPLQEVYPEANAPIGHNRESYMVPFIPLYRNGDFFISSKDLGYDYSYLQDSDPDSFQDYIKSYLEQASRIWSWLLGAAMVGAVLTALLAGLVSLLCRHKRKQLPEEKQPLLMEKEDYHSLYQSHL
# Tyrosinase [4] = biological target: T3, Tyrosinase (Homo sapiens, UniProt P14679)
# T3 sequence (P14679 whole entry): T2 sequence (whole entry)
# Description: (§1) Competitive inhibition of tyrosinase in human G-361 cells incubated for 10 mins measured for 2 hrs by MBTH-based spectrophotometry
# [5] = biological target: T2, Tyrosinase (Homo sapiens); experiment: Ratio of kojic acid IC50 to compound IC50 for human tyrosinase
# [6] = biological target: T2, Tyrosinase (Homo sapiens); details: G-361
# Description: as §1
# Tyrosinase [7] = biological target: T3, Tyrosinase; experiment: Inhibition of tyrosinase in human HMV-2 melanoma cells after 5 mins by spectrophotometry; type: cell-based
smiles,measurement,setting,value
O=c1cc(-c2ccc(O)c(O)c2)oc2c(O)c(O)ccc12,IC50,Tyrosinase [1],0.07 µM
CCCCC/C=C\C/C=C\CCCCCCCC(=O)OCC(COC(=O)CCCCCCC/C=C\C/C=C\CCCCC)OC(=O)CCCCCCC/C=C\C/C=C\CCCCC,IC50,Tyrosinase [2],8.4 µM
CC(C)c1ccccc(=O)c1O [ALPHA-THUJAPLICIN],inhibition,[3],Active
same,IC50,Tyrosinase [4],> 1000 µM
same,Ratio IC50,[5],< 0.57
CC(C)c1cccc(=O)c(O)c1 [HINOKITIOL],inhibition,[6],Dose-dependent effect
same,IC50,Tyrosinase [4],8.98 µM
same,Ratio IC50,[5],63.6
CCCCCCCC/C=C\CCCCCCCC(=O)OCC(COC(=O)CCCCCCC/C=C\CCCCCCCC)OC(=O)CCCCCCC/C=C\CCCCCCCC [TRIOLEIN],IC50,Tyrosinase [2],30 µM
O=Cc1ccc(O)c(O)c1 [PROTOCATECHUALDEHYDE],IC50,Tyrosinase [1],2.9 µM
CC(C)c1ccc(O)c(=O)cc1 [GAMMA-THUJAPLICIN],inhibition,[6],Dose-dependent effect
same,IC50,Tyrosinase [4],1.15 µM
same,Ratio IC50,[5],497
O=C(NCCc1c[nH]c2cc(O)ccc12)c1cc(O)cc(O)c1,IC50,Tyrosinase [7],9.1 µM
same,Ratio IC50,[5],34.1
